Where two headings read alike, the source gives them in different places. Marks after values point to notes of the source that are not given here.
Columns and labels:
[1] = Dynamic Vapour Sorption (DVS) hygroscopicity; assay type: physicochemical; details: for DVS mass uptake at 90% RH: 25° C., uptake from input material; for Hygroscopicity: DVS
Experimental: Dynamic Vapour Sorption (DVS). Approximately, 10 mg of sample was placed into a mesh vapour sorption balance pan and loaded into a DVS-1 or DVS Advantage dynamic vapour sorption balance by Surface Measurement Systems. The sample was subjected to a ramping profile from 40-90% relative humidity (RH) at 10% increments, maintaining the sample at each step until a stable weight had been achieved (dm/dt 0.004%, minimum step length 30 minutes, maximum step length 500 minutes) at 25° C. After completion of the sorption cycle, the sample was dried using the same procedure to 0% RH and then a second sorption cycle back to 40% RH. Two cycles were performed. The weight change during the sorption/desorption cycles were plotted, allowing for the hygroscopic nature of the sample to be determined. XRPD analysis was then carried out on any solid retained.

[2] = system: bleomycin pulmonary fibrosis; assay: Therapeutic bleomycin pulmonary fibrosis model: Ashcroft fibrosis score, hydroxyproline; assay type: in vivo, Sprague Dawley rats
Experimental: Briefly, acclimated Sprague Dawley male rats (c.a. 253 grams at first dosing) were administered bleomycin on days 1, 2, 3 and 6 by the oropharyngeal (OP) route. On the eighth day, treatment was initiated with either saline or nintedanib. […] Ten animals were enrolled into each dosing group. […] All animals were euthanized on day 28d. Body weights were collected throughout the study, with lung weights at termination (Table 55). Left lungs were extracted and measured for hydroxyproline content, while […] were subjected to histology for Ashcroft fibrosis score determination (Table 56).

[3] = system: silica pulmonary fibrosis; assay: Therapeutic silica pulmonary fibrosis model: lung function (elastance, Flexivent); assay type: in vivo, C57BL/6 mice; details: silica mice
Experimental: Sham and silica control groups received saline either IN or PO. Five animals were enrolled into sham groups, 10 animals enrolled into each PO dose groups, and 13 animals were enrolled into each IN dosing group. […] Body weights were collected throughout the study, with lung weights at termination. Flexivent was performed to determine elastance (lung function; Table 59). […] The ventilator determined the elastance of each lung as a measure of lung stiffness/fibrosis by inflating the lungs and assessing changes in flow and pressure.

[4] = system: parenchymal collagen; assay: Therapeutic silica model: parenchymal collagen (Picrosirius Red); assay type: in vivo, C57BL/6 mice; details: silica mice
Experimental: Briefly, acclimated 20-22 g female C57BL/6 mice were administered silica on day 1 by the intratracheal route. On the tenth day, treatment was initiated with either saline or nintedanib. […] Sham and silica control groups received saline either IN or PO. Five animals were enrolled into sham groups, 10 animals enrolled into each PO dose groups, and 13 animals were enrolled into each IN dosing group. […] Body weights were collected throughout the study, with lung weights at termination. Flexivent was performed to determine elastance (lung function; Table 59). Left lungs were extracted, stained as assessed for parenchymal collagen (Table 60) and α-smooth muscle actin (αSMA; Table 61), while right lungs were assessed for interleukin-1β (IL-1β; Table 62). […] collagen was measured by Picrosirius Red (PSR) histopathological analysis. […] Due to the positive impact on other key fibrosis modulators (αSMA, IL-1β; Tables 61 and 62) and that silica-induced fibrosis was well-established prior to start of dosing, it is possible that extending the treatment time would ultimately impact parenchymal collagen.

[5] = system: α-smooth muscle actin (αSMA); assay: Therapeutic silica model: lung α-smooth muscle actin; assay type: in vivo, C57BL/6 mice; details: silica mice
Experimental: (§1) Briefly, acclimated 20-22 g female C57BL/6 mice were administered silica on day 1 by the intratracheal route. On the tenth day, treatment was initiated with either saline or nintedanib. […] Sham and silica control groups received saline either IN or PO. Five animals were enrolled into sham groups, 10 animals enrolled into each PO dose groups, and 13 animals were enrolled into each IN dosing group. […] Body weights were collected throughout the study, with lung weights at termination. Flexivent was performed to determine elastance (lung function; Table 59). Left lungs were extracted, stained as assessed for parenchymal collagen (Table 60) and α-smooth muscle actin (αSMA; Table 61), while right lungs were assessed for interleukin-1β (IL-1β; Table 62). Alpha-smooth muscle actin (αSMA) is a marker of myofibroblast, a key cell type present in fibrotic diseases, including IPF, and is required for production and deposition of collagen.

[6] = system: interleukin-1β (IL-1β); assay: Therapeutic silica model: lung interleukin-1β; assay type: in vivo, C57BL/6 mice; details: silica mice
Experimental: as §1

[7] = Therapeutic bleomycin model: body weight gain, lung weight-to-body weight ratio, tolerability; details: bleomycin rats
[8] = 7 day stability testing of salts (40° C./75% RH, 80° C., ambient light; HPLC purity, XRPD); assay type: physicochemical; details: for Purity (%) / XRPD pattern after 7 day stability testing: listed as HBr salt
Experimental: High Performance Liquid Chromatography-Ultraviolet Detection (HPLC-UV): Instrument: Dionex Ultimate 3000; Column: Acquity CSH C18 100 mm×2.1 mm 1.7 μm; Column Temperature: 50° C.; Autosampler Temperature: Ambient; UV wavelength: 210 nm; Injection Volume: 4 μL; Flow Rate: 0.6 mL/min; Mobile Phase A: 0.1% formic acid in water; Mobile Phase B: 0.1% formic acid in acetonitrile. The HPLC method used the gradient in Table 2.
FT-IR appeared to be consistent with the structure. […] The material was physically stable to changes in temperature and humidity when stored for one week.
A new, poorly crystalline pattern was produced when stored at 40° C./75% RH—Pattern 4.
Purity of these materials remained unchanged (as shown in Table) apart from the sample stored at ambient light, where a 0.5% drop in purity was observed.

[9] = Disproportionation/hydration studies (pH, XRPD pattern); assay type: physicochemical; details: for pH Pre-Agitation: listed as HBr salt
Description: No XRPD data could be compiled on the hydration or disproportionation of the salt due to the high solubility in water and acetone/water mixtures.
The salt only remained Pattern 1 at 0.3 aw. New patterns 6 and 7 are likely hydrated due to the high water activity conditions for production.

[10] = oral nintedanib HBr 30 mg/kg BID
[11] = OP 0.05 mg/kg QD, bleomycin rats
[12] = OP 0.25 mg/kg QD, bleomycin rats
[13] = OP 0.375 mg/kg QD, bleomycin rats
[14] = Oral Gavage (PO) 30 mg/kg BID, lung

COC(=O)c1ccc2c(c1)NC(=O)/C2=C(\Nc1ccc(N(C)C(=O)CN2CCN(C)CC2)cc1)c1ccccc1 [Nintedanib, methyl (3Z)-3-[[4-[methyl-[2-(4-methylpiperazin-1-yl)acetyl]amino]anilino]-phenylmethylidene]-2-oxo-1H-indole-6-carboxylate]
Post-DVS XRPD pattern [1]: remain Pattern 1
DVS mass uptake at 90% RH [1]: ca. 1.7%
Hygroscopicity [1]: slightly hygroscopic
lung fibrosis score (Ashcroft) ([2]; Inhaled (OP) nintedanib HBr dose groups, bleomycin rats): dose responsive reduction in fibrosis score
anti-fibrotic activity compared with oral 60 mg/kg BID ([2]; inhaled high dose (0.375 mg/kg OP QD)): more anti-fibrotic activity as oral
anti-fibrotic activity compared with oral 60 mg/kg BID ([2]; inhaled low dose (0.05 mg/kg OP QD)): less anti-fibrotic activity than oral
anti-fibrotic activity compared with oral 60 mg/kg BID ([2]; inhaled mid-dose (0.25 mg/kg OP QD)): equivalent amount of anti-fibrotic activity as oral
lung function (elastance) [3, 10]: Oral was also significant in improving lung function
parenchymal collagen (PSR) ([4]; inhalation (IN) or oral nintedanib HBr): not reversed by either inhalation or oral nintedanib treatment
lung αSMA levels ([5]; oral and inhaled (IN) nintedanib HBr): both oral and inhaled routes have a substantial impact reducing αSMA lung levels, with the inhaled low and oral doses showing significance
lung IL-1β ([6]; Inhaled (IN) nintedanib HBr dose groups): dose responsive reduction, with the high dose achieving significance
lung IL-1β [6, 10]: did not reduce IL-1β levels
body weight gain ([7]; High dose OP (0.375 mg/kg nintedanib HBr QD)): weight gain equivalent to sham animals
body weight gain ([7]; Oral (PO) 60 mg/kg nintedanib esylate BID): gained about half the weight of control animals

COC(=O)c1ccc2c(c1)NC(=O)/C2=C(\Nc1ccc(N(C)C(=O)CN2CCN(C)CC2)cc1)c1ccccc1 [Nintedanib HBr]
DVS mass uptake at 90% RH ([1]; listed as HBr salt): ca. 4.5%
Hygroscopicity ([1]; listed as HBr): Hygroscopic
Post-DVS XRPD pattern ([1]; listed as HBr salt): remain unchanged
Purity (%) ([8]; 40° C./75% RH, 7 day stability testing): 99.7%
XRPD pattern after 7 day stability testing ([8]; 40° C./75% RH): mixture of Pattern 1 and 4
XRPD pattern after 7 day stability testing ([8]; 80° C. and ambient conditions/light): remain Pattern 1
Purity (%) ([8]; 80° C., 7 day stability testing): 99.6%
Purity (%) ([8]; Ambient, 7 day stability testing): 99.2%
Purity (%) ([8]; Input): 99.7%
drop in purity ([8]; stored at ambient light, 7 day): 0.5%
Pattern (disproportionation/hydration) ([9]; Water Activity 0.3): 1
pH Pre-Agitation ([9]; Water Activity 0.3 (acetone/water)): 4.84
Pattern (disproportionation/hydration) ([9]; Water Activity 0.6): 4
pH Pre-Agitation ([9]; Water Activity 0.6 (acetone/water)): 5.38
Pattern (disproportionation/hydration) ([9]; Water Activity 0.9): New pattern (Pattern 6)
pH Pre-Agitation ([9]; Water Activity 0.9 (acetone/water)): 5.56
Pattern (disproportionation/hydration) ([9]; Water Activity 1): New pattern (Pattern 7)
pH Pre-Agitation ([9]; Water Activity 1.0 (water)): 2.27
Fibrosis Score (SD) (Ashcroft) [2, 11]: 2.7 (0.94)
Fibrosis Score, Delta to Vehicle (%) [2, 11]: −12.5%
Fibrosis Score (SD) (Ashcroft) [2, 12]: 2.1 (0.97)
Fibrosis Score, Delta to Vehicle (%) [2, 12]: 12.5%
Fibrosis Score (SD) (Ashcroft) [2, 13]: 1.9 (0.48)
Fibrosis Score, Delta to Vehicle (%) [2, 13]: 20.8%
Elastance, Delta to Vehicle (%) ([3]; Oral Gavage (PO) 30 mg/kg BID): −122.2%
Elastance, Sham Subtracted ([3]; Oral Gavage (PO) 30 mg/kg BID): −0.2
Parenchymal Collagen, Delta to Vehicle (%) ([4]; Oral Gavage (PO) 30 mg/kg BID): 15.6%
Parenchymal Collagen ([4]; Oral Gavage (PO) 30 mg/kg BID, Picrosirius Red): 0.74
αSMA (%) [5, 14]: 22.8%
αSMA, Delta to Vehicle (%) ([5]; Oral Gavage (PO) 30 mg/kg BID, p < 0.005): −47.7^b %
IL-1β, Delta to Vehicle (%) ([6]; Oral Gavage (PO) 30 mg/kg BID): −1.5%
IL-1β [6, 14]: 1001.0 pg/mL
Body Weight Gain, Delta to Sham (%) ([7]; OP 0.05 mg/kg QD): −18.4%
Body Weight Gain, Delta to Sham (%) ([7]; OP 0.25 mg/kg QD): −26.7%
Body Weight Gain, Delta to Sham (%) ([7]; OP 0.375 mg/kg QD): −4.8%
